# Reference: publication PMC11579209, “Population pharmacokinetics and exposure–response relationships of maribavir in transplant recipients with cytomegalovirus infection” (Journal of Pharmacokinetics and Pharmacodynamics, 2024)
# How the values were obtained:
# CMV [1] = test: Exposure–response analysis of efficacy, primary endpoint: confirmed CMV viremia clearance at week 8 (SOLSTICE); format: in vivo, human; details: for Probability of being responder, primary endpoint: AUCss 200 µg∙h/mL
# Description: (§1) The exposure–response analyses for maribavir were based on data collected from transplant recipients with CMV infections that were refractory to treatment with ganciclovir, valganciclovir, foscarnet, or cidofovir in the phase 3 SOLSTICE study (ClinicalTrials.gov: NCT02931539). SOLSTICE was a multicenter, open-label, active-controlled study in which patients were randomized 2:1 to receive maribavir 400 mg BID or IAT for 8 weeks, with 12 weeks of follow-up. The primary endpoint was confirmed CMV clearance at the end of week 8, and the key secondary endpoint was achievement of CMV clearance and symptom control at the end of week 8, maintained through week 16. TE CMV mutation conferring resistance to maribavir was assessed as an exploratory endpoint. Full details of the SOLSTICE study have been published previously.
# (§2) Posterior Bayes parameters of the final PopPK model were used to derive rich concentration–time profiles for maribavir. Actual dosing history and factors affecting the PK of maribavir (i.e., body weight and time-varying presence of strong CYP3A4 inhibitors or strong CYP3A4 inducers) were considered in the predictions.
# (§3) Data set preparation, exploration, visualization of the data and exposure-response analyses were performed using R® (version 4.0.5 for efficacy and resistance analyses; version 4.0.2 for safety analysis) with comprehensive R® archive network (CRAN) and Certara Strategic Consulting (CSC) package. Firth correction on logistic regression was done based on library “logistf”. Logistic regressions with log-linear exposure effect or Emax exposure effect were performed using NONMEM Version VII (version 7.4).
# Maribavir exposure parameters (AUCss, Cmax.ss, and Ctrough.ss) were combined with the primary and key secondary efficacy endpoints, and with TE CMV mutations conferring resistance to maribavir from the SOLSTICE study. The following covariates were included in the dataset to identify potential influencing factors: transplant type (HCT, SOT); CMV DNA level (high, intermediate, low) at baseline; symptom status (symptomatic or asymptomatic) at baseline; CMV resistant at baseline (yes, no); donor (D) and recipient (R) CMV serostatus (D+/R−, D+/R+, or D−/R+, D−/R−); antilymphocyte use (yes, no); immune function status as measured by total white blood cells from hematology panel at baseline; CMV-specific CD4 + CD69 + and CD8 + CD69 + T cells from immune function assay as continuous variables at baseline; enrolling region (North America, Europe, Asia Pacific); prior use of CMV prophylaxis (yes, no); age (as a continuous parameter) and age group (12 to < 18 years; 18 to < 45 years; 45 to < 65 years; ≥65 years); sex (male, female); race and ethnicity; TE CMV maribavir-resistant mutations (yes, no); and temporal identification of maribavir resistance (no, on maribavir treatment, post-maribavir treatment).
# The exposure–response analyses were performed using a logistic regression model whereby a response can be defined as 0 (non-responder) or 1 (responder). Logistic regression analyses were performed to explore potential associations with maribavir exposure and the probability of response. The logistic regression model had the following form, assuming that maribavir exposure is included in the model:1 [drawing 1]
# Pi is the probability of the event in the ith patient and α is the baseline Ln (odds) of the event. The model assumes a linear exposure effect on logit scale, with the parameter α representing the intercept, while β1 represents the slope linking the exposure parameter (X1) of maribavir (AUCss, Cmax.ss, and Ctrough.ss) to the response. The statistical significance of α and β1 was tested in the logistic regression models with a p value of < 0.05, and 95% CIs were provided for each parameter. The odds ratio (OR) for β1 was derived for a specific unit increment of the PK parameter. […]
# [2] = design: species or system human; details: in vivo
# Description: as §1, §2, §3
# Descriptive statistics were derived for TEAEs, TE serious AEs (SAEs), and TEAEs of special interest during the 8-week treatment phase. Based on the descriptive statistics results, key TEAEs were selected for a formal exposure–response analysis, and exposure parameters of maribavir (AUCday, Cmax.day, Cavg, AUCss, and Cmax.ss) derived from the final PopPK models were merged with retained TEAE. […]
# CMV [3] = details: SOLSTICE, maribavir 400 mg BID vs IAT, cited from earlier work
# [4] = tested on: Cytochrome P450 (CYP) 3A4; design: method as in PMID 12654667, doi:10.1016/j.bbmt.2018.12.600; details: formation of VP44469; cited from earlier work
# [5] = design: method as in PMID 38009271; details: concurrent rifampin; cited from earlier work
# [6] = primary endpoint, reference < 0.5%
structure (smiles),measurement,setting,value
CC(C)Nc1nc2cc(Cl)c(Cl)cc2n1[C@H]1O[C@@H](CO)[C@H](O)[C@@H]1O [maribavir],"Observed proportion of responders, primary endpoint",CMV [1]; 1st quartile of AUCss (range 72.2–170),59%
same,"Observed proportion of responders, primary endpoint",CMV [1]; 2nd quartile of AUCss (range 170–238),72%
same,"Observed proportion of responders, primary endpoint",CMV [1]; 3rd quartile of AUCss (range 238–354),59%
same,"Observed proportion of responders, primary endpoint",CMV [1]; 4th quartile of AUCss (range 354–802),38%
same,"Probability of being responder, primary endpoint","CMV [1]; CD8 + CD69 + cell count ≥ 2%, no TE mutation",90.0%
same,"Probability of being responder, primary endpoint","CMV [1]; developed TE CMV maribavir-resistant mutation, CD8 + CD69 + < 0.5%",1.3%
same,Relationship between maribavir exposure and probability of CMV viremia clearance at week 8,"CMV [1]; excluding 60 patients with TE CMV mutation conferring resistance, n = 171, p = 0.0709",no statistical exposure–efficacy relationship
same,Patients meeting primary endpoint of confirmed CMV viremia clearance at week 8,"CMV [1]; exposure–response population n = 231, 400 mg BID, 131 patients",57%
same,Relationship between maribavir exposure (AUCss) and probability of CMV viremia clearance at week 8,"CMV [1]; n = 231, p = 0.008",negative relationship
same,"Probability of being responder, primary endpoint","CMV [1]; no TE CMV maribavir-resistant mutation, CD8 + CD69 + < 0.5%",74.2%
same,OR (95% CI): treatment-emergent maribavir resistance on maribavir treatment,CMV [1]; primary endpoint,"0.00457 (3.59 × 10^–5, 0.0333)"
same,Non-responders among patients with TE maribavir-resistant CMV mutations,"CMV [1]; primary endpoint, week 8",81%
same,Logistic regression Estimate (SE): baseline CD8+CD69+ cell count ≥2%,CMV [1]; [6],1.19 (0.630)
same,OR (95% CI): baseline CD8+CD69+ cell count not reported,CMV [1]; [6],"0.730 (0.328, 1.66)"
same,OR (95% CI): baseline CD8+CD69+ cell count ≥0.5% to <2%,CMV [1]; [6],"0.739 (0.289, 1.98)"
same,OR (95% CI): baseline CD8+CD69+ cell count ≥2%,CMV [1]; [6],"3.29 (1.07, 13.4)"
same,"Relationship between probability of TE SAE and maribavir AUCday, AUCss, Cmax.ss, and Cavg",[2]; human,Statistically significant positive relationships
same,Relationship between probability of fatigue and maribavir exposure PK metrics,[2],Statistically significant positive relationships
same,Relationship between probability of taste disturbance and Cavg of maribavir,[2],statistically significant negative relationship
same,"Proportion of patients achieving key secondary endpoint (CMV viremia clearance and symptom control at end of week 8, maintained through week 16)",CMV [3],18.7%
same,Proportion of patients achieving primary endpoint (confirmed CMV viremia clearance at week 8),CMV [3]; transplant recipients with refractory CMV,55.7%
same,Share of CYP-mediated metabolism by CYP3A4,[4],70–85%
same,Increase in maribavir clearance,[5],2.5 fold
same,Reduction in maribavir AUC,[5],60%
same,Reduction in maribavir half-life,[5],30%
